Laboratory results as given in patent publication US11440880B2, “Thalidomide analogs and methods of use” (The USA, as represented by the Secretary, Department of …, priority 2015, dated 2022).

Columns and labels:
[1] = system: fli1:EGFP zebrafish embryos (intersegmental vessel growth); test: fli1:EGFP zebrafish embryo angiogenesis assay; assay type: in vivo; parameters: fli1:EGFP angiogenesis n (survived/tested): concentration or dose not given beside the values; details: for minimal effective concentration: Danio rerio, lowest concentration producing an effect, compounds not producing an effect shown at the highest evaluated concentration; for fli1:EGFP angiogenesis n (survived/tested): embryos alive after 24 hours of exposure
Source text: (§1) Zebrafish embryology: The use of zebrafish embryo (Danio rerio) bioassays as a preclinical model in the classification of novel compounds has increased in recent years due to several factors including; low cost, ease of maintenance, speed of embryonic development, transparency of the embryos and genetic conservation between zebrafish and humans (Howe et al., Nature 2013; 496:498; Therapontos et al., PNAS 2009, 106:8573; Mahony et al., PNAS 2013, 110:12703; Beedie et al., Oncotarget 2016, 7(22):33237; Beedie et al., Mol. Cancer Ther. 2015, 14(10):2228). Two established zebrafish reporter lines were used—the fli1:EGFP line, where the fli1 promoter drives expression of enhanced green fluorescent protein within the developing vasculature (Lawson et al., 2002), and the Tg(mpo::EGFP) line (also known as mpo:GFP), which expresses green fluorescent protein via the neutrophil specific myeloperoxidase promoter (Renshaw et al., Blood 2006, 108:3976). The use of these zebrafish transgenic reporter lines allows for the identification of potential anti-angiogenic and anti-inflammatory compounds respectively, and both have been used previously to successfully classify the action of thalidomide analogs (Therapontos et al., 2009; Mahony et al., 2013; Beedie et al., Oncotarget 2016, 7(22):33237; Beedie et al., Mol. Cancer Ther. 2015, 14(10):2228). Zebrafish embryos were treated with analogs as previously described (Mahony et al., 2013). Briefly, fli1:EGFP embryos were collected and embryos were allowed to develop for 24 hours. Embryos were dechorionated manually and exposed to test compounds or vehicle control for a further 24 hours, imaged and analyzed for intersegmental vessel (ISV) growth. At 24 hours post fertilisation (hpf) the ISVs were ideal to study to visualize and analyze the actions of compounds on angiogenesis. At this time point ISVs were rapidly forming beneath the developing head, over the body and had yet to form in the tail (Lawson and Weinstein, Developmental Biology 2002, 248:307; Therapontos and Vargesson, Developmental Dynamics 2010, 239:2761). Additionally, these sprouts would go on to form the bilateral dorsal longitudinal anastomotic vessels. By treating before this fusion and formation occurs, the effect of each compound on the individual vessels as well as overall patterning structural integrity (Isogai et al., Development 2003, 130:5281) could be determined. Tg(mpo::EGFP) were tail fin clipped as previously detailed (Renshaw et al., 2006; Mahony et al., 2013; Beedie et al., Oncotarget 2016, 7(22):33237; Beedie et al., Mol. Cancer Ther. 2015, 14(10):2228) and incubated with test compounds or vehicle control at 72 hours post fertilization. Fish were imaged at 24 hours and the number of migratory neutrophils present at the wound site were counted. Compounds inducing an at least 50% reduction of neutrophils to the wound site were considered to have anti-inflammatory properties in this system. All larvae were assessed for viability and morphological integrity.
To determine if the thalidomide analogs had any effect on angiogenesis, fli1:EGFP embryos (Lawson and Weinstein, Developmental Biology 2002, 248:307-318) were exposed to either vehicle or a compound of interest, over a range of concentrations and over a range of time points starting at 24 hpf. Images were obtained at three time points over 24 hours after exposure to the compounds. The best concentration and time point were selected. CPS49, a compound that is chemically and structurally similar to thalidomide breakdown products, and is tetrafluorinated (which adds stability and bioactivity to the compound) and that causes severe limb defects in chicken embryos, was used as a positive control. The embryos were imaged at 48 hpf (FIGS. 3A3L) and analyzed for both vessel formation and the extent of growth of the vasculature. […]

[2] = system: mpo:GFP zebrafish embryos (neutrophil migration to the wound site); test: mpo:GFP zebrafish fin-clip neutrophil migration (inflammation) assay; assay type: in vivo; parameters: mpo:GFP inflammation n (survived/tested): concentration or dose not given beside the values; details: for minimal effective concentration: Danio rerio, Neutrophil, lowest concentration producing an effect, compounds not producing an effect shown at the highest evaluated concentration; for mpo:GFP inflammation n (survived/tested): embryos survived/tested at the concentration given
Source text: as §1
To assess the immunomodulatory effects of the thalidomide analogs, the mpo:gfp transgenic zebrafish line (Renshaw et al., Blood 2006, 108:3976-3978) was utilized because it is an accepted model of inflammation, and can be used to test the effect of anti-inflammatory agents. These embryos express GFP-tagged myeloperoxidase, where green fluorescence marks the neutrophil cells involved in the inflammatory response process, for example following injury, from 72 hours post fertilization (Renshaw et al., 2006; Mahony et al., 2013; Beedie et al., Oncotarget 2016, 7(22):33237). At 72 hpf the dorsal third of the tail fin was removed and the embryos were immersed in the desired compound or vehicle (FIGS. 5A-5C). The embryos were examined for the effect on the inflammatory response quantified as an induction and migration of neutrophils to the wound site 24 hours later.

TNF-α protein = TNF-α protein level (ELISA) in LPS-challenged RAW 264.7 cells; assay type: cell-based, mouse; parameters: key: NS=not significant; a “+” sign=anti-inflammatory or increased cell numbers; a “−” sign=cell toxicity or pro-inflammatory; details: LPS 30 or 60 ng/mL, 24 h
Protocol: (§2) Nitrite levels in the culture media were measured by use of the Griess Reagent System (Promega, Madison, Wis.), following the manufacturer's protocol. The O.D. of unknown samples was read at 520 nm λ, compared to a sodium nitrite standard curve (1.5 μM to 100 μM) and nitrite measured media concentrations expressed as μM units. As the lowest nitrite concentration on the Griess Reagent System standard curve was 1.5 μM, this was chosen as the effective cutoff for defining measurable nitrite concentrations. TNF-α protein levels were measured by use of an ELISA specific for mouse TNF-α protein (BioLegend, San Diego, Calif.) and are expressed as a % change from their appropriate control or as pg/ml.
(§3) RAW 264.7 cells obtained from ATCC (Manassas, Va., USA) were grown in DMEM media supplemented with 10% FCS, penicillin 100 μg/ml and streptomycin 100 μg/ml, and maintained at 37° C. and 5% CO2. Cells were seeded in 24 well plates and, 24 hours later, were utilized in studies. One hour prior to the initiation of any study, the seeding media was replaced with fresh media (1 mL), and the cells were allowed to equilibrate at 37° C. and 5% CO2.
(§4) RAW 264.7 cells were challenged with LPS (Sigma, St Louis, Mo.: serotype 055:B5) from at a final concentration of 30 or 60 ng/mL. This concentration of LPS in RAW 264.7 cells induces a sub-maximal rise in both TNF-alpha and nitrite levels without a loss in cellular viability. This sub-maximal rise is useful for assessing whether the addition of an experimental drug can either lower or further raise levels of TNF-α and nitrite. Twenty four hours following the addition of LPS, conditioned media was harvested and analyzed for quantification of secreted TNF-α protein and nitrite levels. Fresh media was replaced into the wells and cell viability was then assessed.
(§5) Thalidomide and analogs were prepared in tissue culture grade DMSO (Sigma). RAW 264.7 cells were pretreated with thalidomide, analogues or vehicle one hour prior to a challenge with LPS. The effects of various concentrations of thalidomide analogues were assessed. All compounds were synthesized to a chemical purity of >99.5%, as assessed by chemical characterization by a combination of 1H NMR, 13C NMR and GC/MS analyses (Bruker AC-300 spectrometer, together with elemental analyses (Atlantic Microlab, Inc., Norcross, Ga.).

[3] = system: nitrite levels in the culture media; test: Nitrite level (Griess Reagent System) in LPS-challenged RAW 264.7 cells; assay type: cell-based, mouse; parameters: key: NS=not significant; a “+” sign=anti-inflammatory or increased cell numbers; a “−” sign=cell toxicity or pro-inflammatory; details: LPS 30 or 60 ng/mL, 24 h
Protocol: as §2, §3, §4, §5

RAW 264.7 cells = test: Cell viability (CellTiter 96 AQueous One) of LPS-challenged RAW 264.7 cells; assay type: cell-based, mouse; parameters: key: NS=not significant; a “+” sign=anti-inflammatory or increased cell numbers; a “−” sign=cell toxicity or pro-inflammatory
Protocol: The CellTiter 96® AQueous One Solution Cell Proliferation Assay (Promega, Madison, Wis.) is routinely used as an assay of cell proliferation, and was used according to the manufacturer's recommendations. Changes in cellular health status are determined by use of indirect measures related to the formation of a colored tetrazolium dye product that can be measured spectrophotometrically at 490 nm λ. […] Optical densities (expressed as O.D.s) were measured after various incubations.
as §3, §4, §5

| Structure (SMILES) | anti-angiogenic effect (loss of ISVs or inhibition of ISV outgrowth) ([1]; in words) | minimal effective concentration [1] | fli1:EGFP angiogenesis n (survived/tested) [1] | minimal effective concentration [2] | mpo:GFP inflammation n (survived/tested) [2] | anti-inflammatory activity (inhibition of neutrophil migration) ([2]; in words) | TNF-α (TNF-α protein; 1 μM) | TNF-α (TNF-α protein; 10 μM) | TNF-α (TNF-α protein; 30 μM) | Nitrite ([3]; 1 μM) | Nitrite ([3]; 10 μM) | Nitrite ([3]; 30 μM) | Viability (RAW 264.7 cells; 1 μM) | Viability (RAW 264.7 cells; 10 μM) | Viability (RAW 264.7 cells; 30 μM) |
| --- | --- | --- | --- | --- | --- | --- | --- | --- | --- | --- | --- | --- | --- | --- | --- |
| O=C1c2c(F)c(F)c(F)c(F)c2C(=O)N1c1ccc(F)cc1F [CPS49, reference compound] | decrease in blood vessel length |  |  |  |  |  |  |  |  |  |  |  |  |  |  |
| O=C1NC(=S)CCC1N1C(=O)c2ccccc2C1=S (stereo not shown) [Compound 2, 2,3-dihydro-2-(2-oxo-6-thioxo-3-piperidinyl)-3-thioxo-1H-isoindol-1-one] |  | 10 µg/mL | 21/24 | 10 µg/mL | 26/30 | significant anti-inflammatory action |  |  |  |  |  |  |  |  |  |
| O=C1NC(=S)CCC1N1C(=O)c2cccc(O)c2C1=O (stereo not shown) [Compound 14] |  | 10 µg/mL | 7/23 | 10 µg/mL | 14/24 |  |  |  |  |  |  |  |  |  |  |
| O=C1NC(=S)CCC1N1C(=O)c2ccc(O)cc2C1=O (stereo not shown) [Compound 17] |  | 15 µg/mL | 26/50 | 10 µg/mL | 5/5 |  |  |  |  |  |  |  |  |  |  |
| CC(=O)Oc1ccc2c(c1)C(=O)N(C1CCC(=O)NC1=O)C2=O (stereo not shown) [Compound 18] |  | 50 µg/mL | 24/43 | 50 µg/mL | 14/14 |  |  |  |  |  |  |  |  |  |  |
| CC(=O)Oc1ccc2c(c1)C(=O)N(C1CCC(=S)NC1=O)C2=O (stereo not shown) [Compound 19] |  | 1 µg/mL | 13/51 | 1 µg/mL | 5/12 |  |  |  |  |  |  |  |  |  |  |
| O=C1CCC(N2C(=O)c3ccc(OCc4ccccc4)cc3C2=O)C(=O)N1 (stereo not shown) [Compound 20] |  | 10 µg/mL | 51/79 | 10 µg/mL | 8/14 |  |  |  |  |  |  |  |  |  |  |
| Nc1ccc2c(=O)n(C3CCC(=O)NC3=O)c(=O)oc2c1 (stereo not shown) [Compound 24] |  | 50 µg/mL | 13/25 | 50 µg/mL | 6/6 |  |  |  |  |  |  |  |  |  |  |
| Nc1cccc2c1CN(C1CCC(=S)NC1=O)C2=O (stereo not shown) [Compound 30] |  | 10 µg/mL | 4/8 | 10 µg/mL | 10/10 |  |  |  |  |  |  |  |  |  |  |
| CC(N1Cc2c(cccc2[N+](=O)[O-])C1=S)C12CC3CC(CC(C3)C1)C2 (stereo not shown) [Compound 89] |  | 10 µg/mL | 7/11 |  |  |  | NS | NS | NS | NS | + | + | NS | NS | − |
| C[C@H]1[C@H](N2Cc3c(N)cccc3C2=O)C[C@@H]2C[C@H]1C2(C)C [Compound 91] |  | 10 µg/mL | 5/18 |  |  |  | NS | + | + | + | + | + | NS | + | + |
| C[C@@H]1[C@@H](N2Cc3c(N)cccc3C2=O)C[C@H]2C[C@@H]1C2(C)C [Compound 93] |  | 10 µg/mL | 8/10 |  |  |  | NS | NS | NS | NS | NS | + | NS | NS | NS |
